Counter-ions that a name gives are not always drawn.
Tested on: Endogenous Huntingtin Protein (HTT)
Assay: Endogenous Huntingtin Protein Assay (ELISA-based MSD electrochemiluminescence)
Type: cell-based
Settings: Table 1
Procedure: Compounds of Formula (I) were tested using the Meso Scale Discovery (MSD) Assay provided in International Application No. PCT/US2016/066042, filed on Dec. 11, 2016 and claiming priority to U.S. Provisional Application 62/265,652 filed on Dec. 10, 2015, published as International Publication No. WO 2017/100726 on Jun. 15, 2017, the entire contents of which are incorporated herein by reference.
The Endogenous Huntingtin Protein assay used in Example 1 was developed using the ELISA-based MSD electrochemiluminescence assay platform.
Endogenous Huntingtin Protein Assay
Meso Scale Discovery (MSD) 96-well or 384-well plates were coated overnight at 4° C. with MW1 (expanded polyglutamine) or MAB2166 monoclonal antibody (for capture) at a concentration of 1 μg/mL in PBS (30 μL per well). Plates were then washed three times with 300 µL wash buffer (0.05% Tween-20 in PBS) and blocked (100 μL blocking buffer; 5% BSA in PBS) for 4-5 hours at room temperature with rotational shaking and then washed three times with wash buffer.
Samples (25 μL) were transferred to the antibody-coated MSD plate and incubated overnight at 4° C. After removal of the lysates, the plate was washed three times with wash buffer, and 25 μL of #5656S (Cell signaling; rabbit monoclonal) secondary antibody (diluted to 0.25 μg/mL in 0.05% Tween-20 in blocking buffer) was added to each well and incubated with shaking for 1 Hour at room temperature. Following incubation with the secondary antibody, the wells were rinsed with wash buffer after which 25 μL of goat anti-rabbit SULFO TAG secondary detection antibody (required aspect of the MSD system) (diluted to 0.25 μg/mL in 0.05% Tween-20 in blocking buffer) was added to each well and incubated with shaking for 1 hour at room temperature. After rinsing three times with wash buffer, 150 μL of read buffer T with surfactant (MSD) were added to each empty well, and the plate was imaged on a SI 6000 imager (MSD) according to manufacturers' instructions provided for 96- or 384-well plates.

CCN1CCC(c2ccc3nc(-c4cc(C)c5nn(C)cc5c4)cc(=O)n3c2)CC1 [compound 753, 2-(2,7-dimethyl-2H-indazol-5-yl)-7-(1-ethylpiperidin-4-yl)-4H-pyrido[1,2-a]pyrimidin-4-one]
IC50: 100 to 500 nM

Cc1cc(C2CCN(C3CC3)CC2)cn2c(=O)cc(-c3ccc4nn(C)cc4c3)nc12 [compound 718, 7-(1-cyclopropylpiperidin-4-yl)-9-methyl-2-(2-methyl-2H-indazol-5-yl)-4H-pyrido[1,2-a]pyrimidin-4-one]
IC50: 100 to 500 nM

Cc1cn2cc(-c3cc(=O)n4cc(C5CCN(C(C)C)CC5)ncc4n3)ccc2n1 [compound 627, 2-(2-methylimidazo[1,2-a]pyridin-6-yl)-7-[1-(propan-2-yl)piperidin-4-yl]-4H-pyrazino[1,2-a]pyrimidin-4-one]
IC50: 1000 to 3000 nM

Cc1cn2cc(-c3cc(=O)n4cc(C5CCN(CCO)CC5)ncc4n3)ccc2n1 [compound 581, 7-[1-(2-hydroxyethyl)piperidin-4-yl]-2-(2-methylimidazo[1,2-a]pyridin-6-yl)-4H-pyrazino[1,2-a]pyrimidin-4-one]
IC50: 1000 to 3000 nM

CCc1cc(-c2cc(=O)n3cc(N4CCNCC4)ccc3n2)cn2cc(C)nc12 [compound 637, 2-(8-ethyl-2-methylimidazo[1,2-a]pyridin-6-yl)-7-(piperazin-1-yl)-4H-pyrido[1,2-a]pyrimidin-4-one]
IC50: 500 to 1000 nM

Cc1cn2cc(-c3cc(=O)n4cc(C5CCNCC5)ncc4n3)ccc2n1 [compound 585, 2-(2-methylimidazo[1,2-a]pyridin-6-yl)-7-(piperidin-4-yl)-4H-pyrazino[1,2-a]pyrimidin-4-one]
IC50: 500 to 1000 nM

Cc1cn2cc(-c3cc(=O)n4cc(N5CCNCC5)ccc4n3)nc2c(C)n1 [compound 118, 2-(6,8-dimethylimidazo[1,2-a]pyrazin-2-yl)-7-(piperazin-1-yl)-4H-pyrido[1,2-a]pyrimidin-4-one]
IC50: 3000 to 33000 nM

Cc1cn2cc(-c3ccc4nc(C5CCN(C)CC5)cc(=O)n4c3)ccc2n1 [compound 460, 7-(2-methylimidazo[1,2-a]pyridin-6-yl)-2-(1-methylpiperidin-4-yl)-4H-pyrido[1,2-a]pyrimidin-4-one]
IC50: 3000 to 33000 nM

CCN1CCN(c2ccc3nc(-c4cc5c(C6CC6)nc(C)cn5n4)cc(=O)n3c2)CC1 [compound 685, 2-(4-cyclopropyl-6-methylpyrazolo[1,5-a]pyrazin-2-yl)-7-(4-ethylpiperazin-1-yl)-4H-pyrido[1,2-a]pyrimidin-4-one]
IC50: 3000 to 33000 nM

CCc1nc(C)cn2nc(-c3cc(=O)n4cc(C5CCN(CCO)CC5)cc(C)c4n3)cc12 [compound 793, 2-(4-ethyl-6-methylpyrazolo[1,5-a]pyrazin-2-yl)-7-[1-(2-hydroxyethyl)piperidin-4-yl]-9-methyl-4H-pyrido[1,2-a]pyrimidin-4-one]
IC50: 1000 to 3000 nM

Cc1cn2cc(-c3cc(=O)n4cc(N5CCN[C@@H](C)C5)ccc4n3)cc(C(F)(F)F)c2n1 [compound 735, 7-[(3S)-3-methylpiperazin-1-yl]-2-[2-methyl-8-(trifluoromethyl)imidazo[1,2-a]pyridin-6-yl]-4H-pyrido[1,2-a]pyrimidin-4-one]
IC50: 3000 to 33000 nM

Cc1cn2nc(-c3cc(=O)n4cc(N5CCN[C@@H](C)C5)ccc4n3)cc2cn1 [compound 441, 7-[(3S)-3-methylpiperazin-1-yl]-2-(6-methylpyrazolo[1,5-a]pyrazin-2-yl)-4H-pyrido[1,2-a]pyrimidin-4-one]
IC50: 1000 to 3000 nM

COc1ccc(-c2cc(=O)n3cc(N4CCNCC4)ccc3n2)cc1F [compound 72, 2-(3-fluoro-4-methoxyphenyl)-7-(piperazin-1-yl)-4H-pyrido[1,2-a]pyrimidin-4-one]
IC50: 3000 to 33000 nM

Cc1cc(-c2cc(=O)n3cc(N4CCN(C)CC4)ccc3n2)cc2cnn(C)c12 [compound 846, 2-(1,7-dimethyl-1H-indazol-5-yl)-7-(4-methylpiperazin-1-yl)-4H-pyrido[1,2-a]pyrimidin-4-one]
IC50: 3000 to 33000 nM

Cc1cn2cc(-c3cc(=O)n4cc(C5CCN(C(C)C)CC5)ncc4n3)cc(Cl)c2n1 [compound 595, 2-(8-chloro-2-methylimidazo[1,2-a]pyridin-6-yl)-7-[1-(propan-2-yl)piperidin-4-yl]-4H-pyrazino[1,2-a]pyrimidin-4-one]
IC50: 1000 to 3000 nM

Cc1cn2nc(-c3cc(=O)n4cc(C5CCN(CCF)CC5)ccc4n3)cc2c(C)n1 [compound 662, 2-(4,6-dimethylpyrazolo[1,5-a]pyrazin-2-yl)-7-[1-(2-fluoroethyl)piperidin-4-yl]-4H-pyrido[1,2-a]pyrimidin-4-one]
IC50: 500 to 1000 nM

COc1cncc(-c2cc(=O)n3cc(N4CCNCC4)ccc3n2)c1 [compound 229, 2-(5-methoxypyridin-3-yl)-7-(piperazin-1-yl)-4H-pyrido[1,2-a]pyrimidin-4-one]
IC50: 3000 to 33000 nM

Cc1cn2cc(-c3cc(=O)n4cc(C5CCN(C)CC5)ncc4n3)ccc2n1 [compound 579, 2-(2-methylimidazo[1,2-a]pyridin-6-yl)-7-(1-methylpiperidin-4-yl)-4H-pyrazino[1,2-a]pyrimidin-4-one]
IC50: 3000 to 33000 nM

Cc1cn2nc(-c3cc(=O)n4cc(N5CCN[C@@H](C)C5)ccc4n3)cc2c(C)n1 [compound 121, 2-(4,6-dimethylpyrazolo[1,5-a]pyrazin-2-yl)-7-[(3S)-3-methylpiperazin-1-yl]-4H-pyrido[1,2-a]pyrimidin-4-one]
IC50: 3000 to 33000 nM

Cc1cn2cc(-c3cc(=O)n4cc(N5CCNCC5)ccc4n3)cc(C3CC3)c2n1 [compound 714, 2-(8-cyclopropyl-2-methylimidazo[1,2-a]pyridin-6-yl)-7-(piperazin-1-yl)-4H-pyrido[1,2-a]pyrimidin-4-one]
IC50: 3000 to 33000 nM

Cc1cc(C2CCNCC2)cn2c(=O)cc(-c3ccc4nn(C)cc4c3)nc12 [compound 721, 9-methyl-2-(2-methyl-2H-indazol-5-yl)-7-(piperidin-4-yl)-4H-pyrido[1,2-a]pyrimidin-4-one]
IC50: 500 to 1000 nM

Cc1cn2cc(-c3cc(=O)n4cc(C5CCN(C6CCC6)CC5)ncc4n3)ccc2n1 [compound 628, 7-(1-cyclobutylpiperidin-4-yl)-2-(2-methylimidazo[1,2-a]pyridin-6-yl)-4H-pyrazino[1,2-a]pyrimidin-4-one]
IC50: 3000 to 33000 nM

Cc1nc2cc(-c3cc(=O)n4cc(N5CCN[C@@H](C)C5)ccc4n3)ccc2s1 [compound 135, 2-(2-methyl-1,3-benzothiazol-5-yl)-7-[(3S)-3-methylpiperazin-1-yl]-4H-pyrido[1,2-a]pyrimidin-4-one]
IC50: 1000 to 3000 nM

CCN1CCC(c2cn3c(=O)cc(-c4ccc5nc(C)cn5n4)nc3c(C)n2)CC1 [compound 873, 7-(1-ethylpiperidin-4-yl)-9-methyl-2-(2-methylimidazo[1,2-b]pyridazin-6-yl)-4H-pyrazino[1,2-a]pyrimidin-4-one]
IC50: 100 to 500 nM

Cc1cc(-c2cc(=O)n3cc(C4=CCNCC4)ccc3n2)nc2cn(C)nc12 [compound 863, 2-(2,7-dimethyl-2H-pyrazolo[4,3-b]pyridin-5-yl)-7-(1,2,3,6-tetrahydropyridin-4-yl)-4H-pyrido[1,2-a]pyrimidin-4-one hydrochloride (1:2)]
IC50: 1000 to 3000 nM

O=c1cc(-c2cnc3[nH]ccc3c2)nc2ccc(N3CCNCC3)cn12 [compound 128, 7-(piperazin-1-yl)-2-(1H-pyrrolo[2,3-b]pyridin-5-yl)-4H-pyrido[1,2-a]pyrimidin-4-one]
IC50: 3000 to 33000 nM
